Data on one compound can be found in article PMC6661771, “Indole hybridized diazenyl derivatives: synthesis, antimicrobial activity, cytotoxicity evaluation and docking studies” (BMC Chemistry, 2019).

Each structure is given as a SMILES string. In brackets after ≈: the same amount, converted by molar mass.

Data set [1] deals with E. coli. As to the kind of experiment: MIC by tube dilution method. The format is cell-based. Conditions: Escherichia coli, 24 h, 24 h at 37 °C, read-out: MIC.
Data set [2] concerns S. aureus. Description: MIC by tube dilution method. Type of data set: cell-based. Conditions: Staphylococcus aureus, 24 h at 37 °C, read-out: MIC.
Data set [3] relates to S. enterica. As to the kind of experiment: MIC by tube dilution method. Type of data set: cell-based. The note with it: Salmonella enterica, 24 h, 24 h at 37 °C, read-out: MIC.
Data set [4] concerns B. subtilis. Description: MIC by tube dilution method. Type of data set: cell-based. Conditions: Bacillus subtilis, 24 h at 37 °C, read-out: MIC.
Data set [5] concerns K. pneumonia. Description: MIC by tube dilution method. The format is cell-based. The note with it: Klebsiella pneumoniae, 24 h, 24 h at 37 °C, read-out: MIC.
The subject of data set [6] is A. niger. As to the kind of experiment: MIC by tube dilution method. Conditions: Aspergillus niger, 168 h, 7 days at 25 °C, read-out: MIC. The format is cell-based.
The subject of data set [7] is A. fumigatus. As to the kind of experiment: MIC by tube dilution method. The format is cell-based. Conditions: Aspergillus fumigatus, 168 h, 7 days at 25 °C, read-out: MIC.
Data set [8] deals with E. coli. As to the kind of experiment: Minimum bactericidal concentration (MBC). Conditions: Escherichia coli. Type of data set: cell-based.
Data set [9] concerns S. aureus. As to the kind of experiment: Minimum bactericidal concentration (MBC). Type of data set: cell-based. The note with it: Staphylococcus aureus.
Data set [10] deals with S. enterica. Description: Minimum bactericidal concentration (MBC). The format is cell-based. Conditions: Salmonella enterica; S. enterica; MBC; read-out: MBC/MFC. The procedure: After MIC assessment, the indole derivatives (DS1–DS21), were additionally evaluated for MBC and MFC values. […] The 10–15 ml of nutrient agar and Sabouraud dextrose agar was added to the petri plates for bacterial and fungal samples respectively with gentle shaking of plates in order to mix the culture throughout the media. Allowed the media to solidify. The petri plates were then incubated for the predefined time and temperature as referenced already for bacterial and fungal cultures respectively. The plates were then investigated visually for the development of microbial growth. The MBC and MFC were stated as the minimum concentration of the compounds in aliquots showing no visual growth after incubation.

For data set [11], the system named is B. subtilis. Description: Minimum bactericidal concentration (MBC). Conditions: Bacillus subtilis. Type of data set: cell-based.
In data set [12] the test system is K. pneumonia. Description: Minimum bactericidal concentration (MBC). The format is cell-based. Conditions: Klebsiella pneumoniae.
The subject of data set [13] is A. niger. As to the kind of experiment: Minimum fungicidal concentration (MFC). Conditions: Aspergillus niger, read-out: MBC/MFC. The format is cell-based.
The test system of data set [14] is A. fumigatus. Description: Minimum fungicidal concentration (MFC). Type of data set: cell-based. Conditions: Aspergillus fumigatus, read-out: MBC/MFC.
Another data set deals with HCT 116. As to the kind of experiment: MTT cell proliferation assay. The note with it: Homo sapiens, HCT-116, 48 h, HCT 116 colon cancer, 48 h of drug treatment. Type of data set: cell-based. The procedure: (§1) The cell lines used in study were initially procured from the National Centre for Cell Sciences (NCCS), Pune, India, and maintained in DMEM. The cell line was cultured in 25 cm^2 tissue culture flask with DMEM supplemented with 10% FBS, sodium bicarbonate, L-glutamine, and antibiotic solution containing: streptomycin (100 μg/ml), penicillin (100 U/ml). Cultured cell line was kept at 37 °C in a humidified 5% CO2 incubator (VWR, USA).
(§2) The compounds found to have good antimicrobial potential were then screened for their cytotoxicity using MTT […]) assay. 1 × 10^4 cells/well were seeded in 100 µl DMEM/MEM, supplemented with 10% FBS in each well of 96-well microculture plates and incubated for 24 h at 37 °C in a CO2 incubator. After incubation, all the prepared/synthesized compounds were added to the cells at 10, 25, 50 and 100 µg concentrations for 48 h. After 48 h of drug treatment, 10 µl MTT (5 mg/ml) was added to each well and the plates were further incubated for 4 h. Then the supernatant from each well was carefully removed, formazan crystals were dissolved in 100 µl of DMSO and absorbance at 570 nm wavelength was recorded on an ELISA reader. The IC50 value was calculated using the linear regression equation i.e. Y = Mx + C. Here, Y = 50, M and C values were derived from the viability graph. The assay was performed in triplicate.
(In general: Formazan colour is commonly taken as a measure of viable cells.)

The next data set relates to K562. Description: MTT cell proliferation assay. The format is cell-based. Conditions: Homo sapiens, K562 leukemia, 48 h of drug treatment. The procedure: as §1, §2
Another data set concerns MDA MB 231. As to the kind of experiment: MTT cell proliferation assay. The note with it: Homo sapiens, MDA-MB-231, 48 h, MDA MB 231 breast cancer, 48 h of drug treatment, read-out: IC50. Type of data set: cell-based. The procedure: as §1, §2
The test system of the next data set is HEK-293. Description: MTT cell proliferation assay, normal cells. The format is cell-based. The note with it: Homo sapiens, HEK293, HEK-293 normal cells, 48 h of drug treatment. How it is done: as §1, §2

As to `C/C(=N/c1nnc(-c2ccc([N+](=O)[O-])cc2Cl)s1)c1ccc(/N=N\c2c[nH]c3ccc([N+](=O)[O-])cc23)cc1` [DS-3, (Z)-5-(2-Chloro-4-nitrophenyl)-N-(1-(4-((Z)-(5-nitro-1H-indol-3-yl)diazenyl)phenyl)ethylidene)-1,3,4-thiadiazol-2-amine], the melting point (usually the temperature, or range, at which the solid turns liquid) was 155 to 160 °C. For the same compound, the MIC (in general, the smallest concentration in the dilution series that meets the test's criterion for growth inhibition) in the data set on E. coli [1] came to 3.9 µg/mL (≈ 7.13 µM). Further, the MIC in the data set with S. aureus [2] was 62.5 µg/mL (≈ 114 µM). In addition, the MIC in the data set on S. enterica [3] was 31.2 µg/mL (≈ 57.1 µM). For the same compound, the minimum inhibitory concentration (MIC) with B. subtilis [4] stood at 31.2 µg/mL (≈ 57.1 µM). Also, the MIC in the data set with K. pneumonia [5] stood at 1.95 µg/mL (≈ 3.57 µM). The MIC in the data set with A. niger [6] was 62.5 µg/mL (≈ 114 µM). The MIC in the data set with A. fumigatus [7] is 15.6 µg/mL (≈ 28.6 µM). Further, the MBC with E. coli [8] was determined as 31.2 µg/mL (≈ 57.1 µM). This compound also returned an MBC in the data set on S. aureus [9] of 62.5 µg/mL (≈ 114 µM). Also, in the data set on S. enterica [10], the MBC was determined as 31.2 µg/mL (≈ 57.1 µM). The MBC with B. subtilis [11] came out at 62.5 µg/mL (≈ 114 µM). The compound further had an MBC in the data set with K. pneumonia [12] of 31.2 µg/mL (≈ 57.1 µM). Also, the MFC in the data set on A. niger [13] turned out to be 125 µg/mL (≈ 229 µM). The MFC in the data set on A. fumigatus [14] came out at 62.5 µg/mL (≈ 114 µM). In addition, the IC50 – broadly, the concentration at which inhibition is half-maximal – with HCT 116 amounted to 110 ± 2.55 µg/mL (≈ 201 µM). In the data set on K562, this compound gave an IC50 of 146 ± 2.11 µg/mL (≈ 267 µM). The IC50 in the data set with MDA MB 231 amounted to 46 ± 1.83 µg/mL (≈ 84 µM). This compound came in with an IC50 in the data set with HEK-293 of 311.2 ± 1.76 µg/mL (≈ 569 µM).
